Source: US20250289878A1, “SURFACE-MODIFIED EXOSOMES AND METHODS OF USE” (The Board of Regents of the University of Oklahoma, priority 2021, published 2025)

Columns and labels:
B16F10 cells = test: CCK-8 cell viability / cytotoxicity test; format: cell-based, murine; conditions: Mus musculus, B16-F10, DOX concentration, 24 hours, read-out: half-maximal inhibitory concentration (IC50)
Description: Cells (B16F10 and RAW 264.7 cell line) were grown in DMEM containing 10% FBS at 37° C. with 5% CO2. B16F10 and RAW 264.7 cells were seeded on the 96 well tissue culture plates (1×10^4 per well) and cultured for 24 hours. To confirm the biosafety of ASL and AEx, the cells were treated with various concentrations of ASL and AEx and incubated for 24 hours. For the cytotoxicity test, B16F10 cells were given the various concentrations of dAEx, dEx, DOX. In addition to the further competition test, B16F10 cells were incubated with the cyclic RGD (2 μM) for 2 hours and treated with the various concentrations of dAEx. After 24 hours of the treatment, to investigate the cell survival, cells were washed using the fresh PBS twice, and 10% CCK-8 containing DMEM was added to each well and incubated for 1 hour. The absorbance was measured using a microplate reader at 450 nm.

[1] = system: cleaved caspase-3 and cleaved PARP of B16F10 cells; test: Apoptotic activity: cleaved caspase-3 and cleaved PARP by ELISA and western blot; format: cell-based, murine; conditions: DOX 5 μM, 24 hours
Description: B16F10 cells were seeded in a 100 mm cell culture dish with cell density at 4.4×10^6 and incubated for 24 hours. After the treatment of various agents with a fixed concentration of DOX (5 μM) for 24 hours, proteins were collected using a cell lysis buffer on ice. Proteins were separated by electrophoresis and transferred to PVDF membranes. Cleaved caspase-3, cleaved PARP, and β-actin (Cell Signaling Technology, Danvers, MA, USA) were used as primary antibodies, and IRDye secondary antibodies (LI-COR Biosciences, Lincoln, NE, USA) were used as secondary antibodies. The protein bands were imaged using the Odyssey CLx (LI-COR Biosciences, Lincoln, NE, USA). The apoptotic activities of dAEx were evaluated by measuring the level of cleaved caspase-3, and cleaved PARP in the protein samples with a cleaved PARP (Cell Signaling Technology, Danvers, MA, USA) and a cleaved caspase-3 (R&D systems, Minneapolis, MN, USA) ELISA kit according to manufacturer's protocol.

B16F10 tumor = test: B16F10 murine tumor model, therapeutic efficacy; format: in vivo, mice; conditions: IV every three days, DOX 5 mg/kg (ASL 2.5 mg/kg), vs untreated control
Description: B16F10 cells (1×10^6) were directly injected into the flank of 6 weeks old mice. The mice were randomly grouped by six in each and observed until the cancer volume reached ˜50 mm^3. […] The tumor volume was calculated based on the formula: (width^2×length)/2. On day 18, the mice were sacrificed, and organs were harvested for histological analysis. H&E and TUNEL staining were performed using the paraffin-embedded tissues.

COc1cccc2c1C(=O)c1c(O)c3c(c(O)c1C2=O)C[C@@](O)(C(=O)CO)C[C@@H]3O[C@H]1C[C@H](N)[C@H](O)[C@H](C)O1 [DOX, Doxorubicin]
IC50 (B16F10 cells): 9.85 ± 1.06 µM
expression of cleaved caspase-3 and cleaved PARP [1]: slight activation
tumor growth (tumor volume) (B16F10 tumor): did not significantly inhibit tumor growth
